Laboratory results: US6225478A, “Iridoid derivatives and neovascularization inhibitors containing the same as active ingredient” (Tsumura & Co., priority 1999, dated 2001)
Converted amounts (≈) assume the structure as drawn. Read-outs that look alike come from different tables or passages of the source.

What was measured:
Assay type in all cases: cell-based
[1] = test system: human umbilical-vein endothelial cells (HUVEC); assay: Cell Proliferation Assay (CPA) Test, HUVEC, MTT; settings: Homo sapiens, M199 (2+) medium, read-out: CPA (IC50 μg/ml)
How it was run: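 HUVEC (7th subculture) seeded at 5×10^4 cells/ml in M-199 with 20% FCS, 10 ng/ml b-FGF and 10 ng/ml EGF, grown 24 h at 37 °C, 5% CO2. Compounds added from 1 mg/ml or 0.1 mg/ml samples in 5% DMSO-PBS(−), renewed with medium after 24 h, then cultured 48 h more. Read-out by MTT with 4 h incubation and SDS/HCl stop.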

[2] = test system: human umbilical-vein endothelial cells (HUVEC); assay: Cell Migration Assay (CMA) Test, HUVEC (% relative to control); settings: Homo sapiens, HUVEC, 24 hours, 60% or less = remarkable inhibition, read-out: CMA (% relative to control); for activity at 1 µg/mL: 1 μg/ml; for activity at 10 µg/mL: 10 μg/ml
How it was run: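 Confluent 7th-subculture HUVEC monolayers scraped with razor blade, then given M199 (2+) plus 40 or 4 μl of 1 mg/ml sample (in 5% DMSO-PBS) per 4.0 ml medium for 24 h at 37 °C. Methanol-fixed, Giemsa-stained; newly migrated cells counted microscopically in 1 mm×1 mm blocks, expressed versus M199 (2+) control.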

[3] = test system: human umbilical-vein endothelial cells (HUVEC); assay: Tube Formation Assay (TFA) Test, HUVEC in collagen gel; settings: Homo sapiens, HUVEC, 20 hours, 40% or less judged remarkable, read-out: TFA (inhibition rate, %); for inhibition at 1 µg/mL: 1 μg/ml; for inhibition at 10 µg/mL: 10 μg/ml
How it was run: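 HUVEC (7th subculture, 1×10^5 cells/ml) attached to collagen gel for 2 h at 37 °C, given sample and overlaid with collagen, then cultured 20 h at 37 °C, 5% CO2 in M-199 with 20% FCS, 30 ng/ml b-FGF and 0.1 μM PMA. Tube length measured by image analysis; % inhibition relative to positive and negative controls.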

| SMILES | IC50 [1] [µg/mL] | activity at 1 µg/mL [2] [%] | activity at 10 µg/mL [2] [%] | inhibition at 1 µg/mL ([3]; 20 h) [%] | inhibition at 10 µg/mL ([3]; 20 h) [%] | inhibition at 1 µg/mL [3] [%] | inhibition at 10 µg/mL [3] [%] |
| --- | --- | --- | --- | --- | --- | --- | --- |
| CNC(=O)O[C@@H]1OC=C(C(=O)NCc2ccccc2)[C@H]2C[C@@H]3O[C@]3(C)[C@H]12 [compound 27, (1S,4aS,6S,7R,7aR)-6,7-epoxy-1,4a,5,6,7,7a-hexahydro-7-methyl-1-(methylcarbamoyloxy) cyclopenta [c]-pyrane-4-carboxylic acid benzylamide] | > 100 | 94.5 | 103 | 29.1 | 32.7 | – | – |
| CNC(=O)O[C@@H]1OC=C(C(=O)NCCc2ccccc2)[C@H]2C[C@@H]3O[C@]3(C)[C@H]12 [compound 28, (1S,4aS,6S,7R,7aR)-6,7-epoxy-1,4a,5,6,7,7a-hexahydro-7-methyl-1-(methylcarbamoyloxy) cyclopenta [c]-pyrane-4-carboxylic acid phenylethylamide] | > 100 | 94.3 | 114 | 41.3 | 36.8 | – | – |
| COC(=O)C1=CO[C@@H](OC(N)=O)[C@@H]2[C@@H]1C[C@@H]1O[C@]21C [compound 29, (1S,4aS,6S,7R,7aR)-1-(carbamoyloxy)-6,7-epoxy-1,4a,5,6,7,7a-hexahydro-7-methylcyclopenta [c] pyrane-4-carboxylic acid methylester] | > 100 | 89.9 | 88 | 17.7 | 29.3 | – | – |
| CCNC(=O)O[C@@H]1OC=C(C(=O)OC)[C@H]2C[C@@H]3O[C@]3(C)[C@H]12 [compound 30, (1S,4aS,6S,7R,7aR)-6,7-epoxy-1-(ethylcarbamoyloxy)-1,4a,5,6,7,7a-hexahydro-7-methylcyclopenta [c] pyrane-4-carboxylic acid methylester] | > 100 | 90 | 105 | 16.5 | 36 | – | – |
| COC(=O)C1=COC(OC(=O)N(C)C)C2C1CC1OC12C (stereo not drawn) [compound 31] | > 100 | 97.2 | 107 | 15.2 | 26.5 | – | – |
| COC(=O)C1=CO[C@@H](OC(=O)NCCCl)[C@@H]2[C@@H]1C[C@@H]1O[C@]21C [compound 32, (1S,4aS,6S,7R,7aR)-1-[(2-chloroethyl)carbamoyloxy]-6,7-epoxy-1,4a,5,6,7,7a-hexahydro-7-methylcyclopenta [c] pyrane-4-carboxylic acid methylester] | > 100 | 93 | 97 | – | – | 68.8 | 30 |
| COC(=O)C1=CO[C@@H](OC(=O)NC(C)C)[C@@H]2[C@@H]1C[C@@H]1O[C@]21C [compound 34, (1S,4aS,6S,7R,7aR)-6,7-epoxy-1,4a,5,6,7,7a-hexahydro-1-(isopropylcarbamoyloxy)-7-methylcyclopenta [c] pyrane-4-carboxylic acid methylester] | > 100 | 98.2 | 95.2 | 16.8 | -14.1 | – | – |
| COC(=O)C1=CO[C@@H](OC(=O)Nc2ccccc2)[C@@H]2[C@@H]1C[C@@H]1O[C@]21C [compound 35, (1S,4aS,6S,7R,7aR)-6,7-epoxy-1,4a,5,6,7,7a-hexahydro-7-methyl-1-(phenylcarbamoyloxy) cyclopenta [c] pyrane-4-carboxylic acid methylester] | > 100 | 84.4 | 67.2 | -3.3 | 20 | – | – |
| COC(=O)C1=CO[C@@H](OC(=O)Nc2ccc(F)cc2)[C@@H]2[C@@H]1C[C@@H]1O[C@]21C [compound 36, (1S,4aS,6S,7R,7aR)-6,7-epoxy-1,4a,5,6,7,7a-hexahydro-1-[(4-fluorophenyl)carbamoyloxy]-7-methylcyclopenta [c] pyrane-4-carboxylic acid methylester] | > 100 | 95 | 99.7 | 6.9 | -18.3 | – | – |
| COC(=O)C1=COC(OC(=O)Nc2cccc3ccccc23)C2C1CC1OC12C [compound 37, (1S, 4aS,6S,7R,7aR)-6,7-epoxy-1,4a,5,6,7,7a-hexahydro-7-methyl-1-[(1-naphtyl)carbamoyloxy] cyclopenta [c] pyrane-4-carboxylic acid methylester] | > 100 | 102 | 88.6 | 14.1 | 22.6 | – | – |
| COC(=O)C1=CO[C@@H](OC(=O)N2CCOCC2)[C@@H]2[C@@H]1C[C@@H]1O[C@]21C [compound 38, (1S,4aS,6S,7R,7aR)-6,7-epoxy-1,4a,5,6,7,7a-hexahydro-7-methyl-1-(morpholinocarbonyloxy) cyclopenta [c] pyrane-4-carboxylic acid methylester] | > 100 | 92.3 | 61.8 | 15.3 | -10 | – | – |
| COC(=O)C1=CO[C@@H](OC(=O)NC(=O)CCl)[C@@H]2[C@@H]1C[C@@H]1O[C@]21C [compound 39, (1S,4aS,6S,7R,7aR)-1-(chloroacetylcarbamoyloxy)-6,7-epoxy-1,4a,5,6,7,7a-hexahydro-7-methylcyclopenta [c] pyrane-4-carboxylic acid methylester] | 55 (≈ 159 µM) | 110 | 94.6 | 37.6 | 39.7 | – | – |
| COC(=O)C1=CO[C@H](OC(=O)NC(=O)CCl)[C@@H]2[C@@H]1C[C@@H]1O[C@]21C [compound 40, (1R,4aS,6S,7R,7aR)-1-(chloroacetylcarbamoyloxy)-6,7-epoxy-1,4a,5,6,7,7a-hexahydro-7-methylcyclopenta [c] pyrane-4-carboxylic acid methylester] | 58.1 (≈ 168 µM) | 77.3 | 66.8 | 32.8 | 23.8 | – | – |
| COC(=O)C1=CO[C@@H](OC(=O)NC(=O)c2ccccc2)[C@@H]2[C@@H]1C[C@@H]1O[C@]21C [compound 41, (1S,4aS,6S,7R,7aR)-1-(benzoylcarbamoyloxy)-6,7-epoxy-1,4a,5,6,7,7a-hexahydro-7-methylcyclopenta [c] pyrane-4-carboxylic acid methylester] | 56.1 (≈ 150 µM) | 102 | 95 | 46.7 | 37.6 | – | – |
| CC[C@]12O[C@H]1C[C@@H]1C(C(=O)OC)=CO[C@@H](OC(=O)NC)[C@@H]12 [compound 43, (1S,4aS,6s,7R,7aR)-6,7-epoxy-7-ethyl-1,4a,5,6,7,7a-1-hexahydro-1-(methylcarbamoyloxy) cyclopenta [c] pyrane-4-carboxylic acid methylester] | > 100 | 99.9 | 89.3 | 12.4 | 9.1 | – | – |
| CCCCCC[C@]12O[C@H]1C[C@@H]1C(C(=O)OC)=CO[C@@H](OC(=O)NC)[C@@H]12 [compound 44, (1S,4aS,6S,7R,7aR)-6. 7-epoxy-7-n-hexyl-1,4a,5,6,7,7a-hexahydro-1-(methylcarbamoyloxy) cyclopenta [c] pyrane-4-carboxylic acid methy:lester] | > 100 | 99.4 | 98.2 | 69.7 | 71.4 | – | – |
| CNC(=O)O[C@@H]1OC=C(C(=O)OC)[C@H]2C[C@@H]3O[C@]3(COC(C)=O)[C@@H]12 [compound 46, (1S,4aS,6S. 7R,7aR)-7-(acetoxymethyl)-6,7-epoxy-1-(methylcarbamoyloxy)-1,4a,5,6,7,7a-hexahydro [c] pyrane-4-carboxylic acid methylester] | > 100 | 105 | 103 | -0.8 | 1.5 | – | – |
| CNC(=O)O[C@@H]1OC=C(C(=O)OC)[C@H]2C[C@@H]3O[C@]3(CF)[C@@H]12 [compound 50, (1S,4aS,6S,7R,7aR)-6,7-epoxy-7-(fluoromethyl)-1-(methylcarbamoloxy)-1,4a,5,6,7,7a-hexahydrocyclopenta [c] pyrane-4-carboxylic acid methylester] | > 100 | 87.9 | 63.5 | 9.5 | 23.2 | – | – |
